Experimental data reported in patent publication US12479830B2, “Homopiperazinyl and homopiperidinyl quinazolin-4(3H)-one derivatives having multimodal activity against pain” (ESTEVE PHARMACEUTICALS, S.A., priority 2019, dated 2025).

Key:
[1] = molecular target: Human α2δ-1 subunit of Cav2.2 calcium channel (Homo sapiens, UniProt P54289); assay: Human α2δ-1 subunit of Cav2.2 calcium channel assay ([3H]-gabapentin binding); conditions: binding to the α2δ-1 subunit of voltage-gated calcium channels, expressed as Ki class; + also covers inhibition between 1% and 50%
How it was run: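 Human α2δ-1 enriched membranes (2.5 μg) incubated 60 min at 27° C. with 15 nM [3H]-gabapentin in 10 mM Hepes-KOH pH 7.4; non-specific binding with 10 μM pregabalin. Filtration binding; % inhibition at 1 or 10 μM, or Ki from five concentrations.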

[2] = molecular target: T1, Human σ1 receptor (Homo sapiens, UniProt Q99720); assay: Human σ1 receptor radioligand assay ([3H](+)-pentazocine binding); conditions: binding to the σ1 receptor, expressed as Ki class; + also covers inhibition between 1% and 50%
T1 construct: expressed in transfected cells; host or cells: HEK-293
How it was run: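 Membranes (7 μg) were incubated with 5 nM [3H](+)-pentazocine in 50 mM Tris-HCl pH 8 for 120 min at 37° C. Non-specific binding was defined with 10 μM haloperidol. Values are % inhibition at 1 or 10 μM or Ki from five concentrations, read by filtration and scintillation counting.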

Chain of Human α2δ-1 subunit of Cav2.2 calcium channel (P54289 25-1103): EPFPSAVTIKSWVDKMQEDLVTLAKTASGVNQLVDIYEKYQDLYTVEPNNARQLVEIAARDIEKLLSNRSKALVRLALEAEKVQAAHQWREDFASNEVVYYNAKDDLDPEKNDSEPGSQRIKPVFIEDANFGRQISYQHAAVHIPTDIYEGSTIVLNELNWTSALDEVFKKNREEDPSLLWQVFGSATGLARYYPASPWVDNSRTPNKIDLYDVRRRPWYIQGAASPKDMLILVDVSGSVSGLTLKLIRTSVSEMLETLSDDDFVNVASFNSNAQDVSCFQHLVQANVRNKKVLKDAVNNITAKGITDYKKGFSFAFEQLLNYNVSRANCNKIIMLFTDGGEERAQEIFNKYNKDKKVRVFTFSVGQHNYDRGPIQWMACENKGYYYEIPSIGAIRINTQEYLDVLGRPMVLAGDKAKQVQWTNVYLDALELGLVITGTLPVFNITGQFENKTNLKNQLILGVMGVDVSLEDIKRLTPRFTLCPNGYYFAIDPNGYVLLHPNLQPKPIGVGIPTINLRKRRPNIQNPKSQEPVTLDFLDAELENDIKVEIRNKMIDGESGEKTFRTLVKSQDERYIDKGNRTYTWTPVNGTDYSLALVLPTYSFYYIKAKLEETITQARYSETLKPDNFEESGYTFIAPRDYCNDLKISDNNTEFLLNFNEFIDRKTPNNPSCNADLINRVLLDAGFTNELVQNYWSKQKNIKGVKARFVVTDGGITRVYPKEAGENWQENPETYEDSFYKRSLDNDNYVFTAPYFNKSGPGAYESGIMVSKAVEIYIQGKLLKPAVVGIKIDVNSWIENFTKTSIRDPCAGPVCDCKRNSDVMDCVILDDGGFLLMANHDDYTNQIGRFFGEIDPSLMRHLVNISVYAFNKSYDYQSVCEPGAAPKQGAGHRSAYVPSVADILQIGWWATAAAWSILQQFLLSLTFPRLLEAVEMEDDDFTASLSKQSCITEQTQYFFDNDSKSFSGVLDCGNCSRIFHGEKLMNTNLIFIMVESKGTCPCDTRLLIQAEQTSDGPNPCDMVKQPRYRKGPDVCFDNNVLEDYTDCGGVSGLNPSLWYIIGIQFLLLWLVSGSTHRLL
T1 sequence (Q99720 whole entry): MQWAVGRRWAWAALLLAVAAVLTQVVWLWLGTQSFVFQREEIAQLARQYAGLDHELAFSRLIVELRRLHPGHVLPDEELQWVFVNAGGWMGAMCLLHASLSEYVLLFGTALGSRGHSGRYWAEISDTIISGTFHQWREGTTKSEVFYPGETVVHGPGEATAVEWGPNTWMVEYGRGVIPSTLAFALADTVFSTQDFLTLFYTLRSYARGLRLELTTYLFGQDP

Compound	Ki [1]	Ki [2]
CCC[C@H](c1nc2ccc(F)cc2c(=O)n1CC(C)C)N1CCCN(C)CC1 [Example 214, (R)-6-fluoro-3-isobutyl-2-(1-(4-methyl-1,4-diazepan-1-yl)butyl)quinazolin-4(3H)-one]	< 500 nM	< 500 nM
CCC[C@@H](c1nc2ccc(Cl)cc2c(=O)n1C)N1CCCN[C@@H](C)C1 [Example 149, 6-chloro-3-methyl-2-((S)-1-((S)-3-methyl-1,4-diazepan-1-yl)butyl)quinazolin-4(3H)-one]	> 5000 nM	< 500 nM
CCCC(c1nc2ncc(F)cc2c(=O)n1CC1CC1)N1CCCN(CC)CC1 (stereo not drawn) [Example 185, 3-(cyclopropylmethyl)-2-(1-(4-ethyl-1,4-diazepan-1-yl)butyl)-6-fluoropyrido[2,3-d]pyrimidin-4(3H)-one]	< 500 nM	> 1000 nM
CCCC(c1nc2ccc(Br)cc2c(=O)n1CC(=O)O)N1CCCN(C)CC1 (stereo not drawn) [Example 208, 2-(6-Bromo-2-(1-(4-methyl-1,4-diazepan-1-yl)butyl)-4-oxoquinazolin-3(4H)-yl)acetic acid]	> 5000 nM	> 1000 nM
CCC[C@H](c1nc2cc(OC)c(F)cc2c(=O)n1CC)N1CCCN(C)CC1 [Example 230, (R)-3-ethyl-6-fluoro-7-methoxy-2-(1-(4-methyl-1,4-diazepan-1-yl)butyl)quinazolin-4(3H)-one]	< 500 nM	500 to 1000 nM
CCC[C@H](c1nc2ccc(Cl)cc2c(=O)n1C)N1CCCN[C@@H](C)C1 [Example 148, 6-chloro-3-methyl-2-((R)-1-((S)-3-methyl-1,4-diazepan-1-yl)butyl)quinazolin-4(3H)-one]	< 500 nM	> 1000 nM
CCCC(c1nc2cccnc2c(=O)n1CC)N1CCCNCC1 (stereo not drawn) [Example 100, 2-(1-(1,4-diazepan-1-yl)butyl)-3-ethylpyrido[3,2-d]pyrimidin-4(3H)-one]	> 5000 nM	> 1000 nM
CCC[C@@H](c1nc2ccncc2c(=O)n1CC)N1CCN(C)C[C@@H](C)C1 [Example 171, 2-((S)-1-((R)-4,6-dimethyl-1,4-diazepan-1-yl)butyl)-3-ethylpyrido[4,3-d]pyrimidin-4(3H)-one]	> 5000 nM	> 1000 nM
CCC[C@H](c1nc2ccc(Br)cc2c(=O)n1CC)N1CCN(C)C[C@@H](C)C1 [Example 35, 6-bromo-2-((R)-1-((R)-4,6-dimethyl-1,4-diazepan-1-yl)butyl)-3-ethylquinazolin-4(3H)-one]	< 500 nM	> 1000 nM
CCC[C@H](c1nc2ccc(Br)cc2c(=O)n1CC)N1CCN(C)C[C@H](C)C1 [Example 36, 6-bromo-2-((R)-1-((S)-4,6-dimethyl-1,4-diazepan-1-yl)butyl)-3-ethylquinazolin-4(3H)-one]	< 500 nM	500 to 1000 nM
CCC[C@H](c1nc2ccc(F)cc2c(=O)n1CCC)N1CCCN(C)CC1 [Example 211, (R)-6-fluoro-2-(1-(4-methyl-1,4-diazepan-1-yl)butyl)-3-propylquinazolin-4(3H)-one]	< 500 nM	< 500 nM
CCC[C@@H](c1nc2cc(Cl)c(Cl)cc2c(=O)n1CC)N1CCNC[C@H](C)C1 [Example 111, 6,7-dichloro-3-ethyl-2-((S)-1-((S)-6-methyl-1,4-diazepan-1-yl)butyl)quinazolin-4(3H)-one]	500 to 5000 nM	> 1000 nM
CCCC(c1nc2cc(Br)ccc2c(=O)n1CC)N1CCCN(C)CC1 (stereo not drawn) [Example 3, 7-bromo-3-ethyl-2-(1-(4-methyl-1,4-diazepan-1-yl)butyl)quinazolin-4(3H)-one]	< 500 nM	> 1000 nM
CCC[C@@H](c1nc2ncc(Br)cc2c(=O)n1CC)N1CCN(C)C[C@@H](C)C1 [Example 189, 6-bromo-2-((S)-1-((R)-4,6-dimethyl-1,4-diazepan-1-yl)butyl)-3-ethylpyrido[2,3-d]pyrimidin-4(3H)-one]	> 5000 nM	> 1000 nM
CCC[C@@H](c1nc2cc(F)c(Br)cc2c(=O)n1CC)N1CCNC[C@@H](C)C1 [Example 99]	500 to 5000 nM	> 1000 nM
CCC[C@H](c1nc2ccc(F)cc2c(=O)n1C)N1CCN[C@H](C)CC1 [Example 255, 6-fluoro-3-methyl-2-((R)-1-((R)-5-methyl-1,4-diazepan-1-yl)butyl)quinazolin-4(3H)-one]	> 5000 nM	> 1000 nM
CCC[C@H](c1nc2ccc(Br)cc2c(=O)n1CC)N1CCN(C)C[C@@H](CO)C1 [Example 125, 6-bromo-3-ethyl-2-((R)-1-((R)-6-(hydroxymethyl)-4-methyl-1,4-diazepan-1-yl)butyl)quinazolin-4(3H)-one]	500 to 5000 nM	500 to 1000 nM
CCC[C@H](c1nc2ccc(F)cc2c(=O)n1C)N1CCN[C@@H](C)CC1 [Example 256, 6-fluoro-3-methyl-2-((R)-1-((S)-5-methyl-1,4-diazepan-1-yl)butyl)quinazolin-4(3H)-one]	500 to 5000 nM	< 500 nM
CCC[C@H](c1nc2ccc(Br)cc2c(=O)n1CCC)N1CCNC[C@H](C)C1 [Example 67, 6-bromo-2-((R)-1-((S)-6-methyl-1,4-diazepan-1-yl)butyl)-3-propylquinazolin-4(3H)-one]	< 500 nM	> 1000 nM
CCC[C@H](c1nc2ccc(Br)cc2c(=O)n1CC)N1CCN[C@H](C)CC1 [Example 92, 6-bromo-3-ethyl-2-((R)-1-((R)-5-methyl-1,4-diazepan-1-yl)butyl)quinazolin-4(3H)-one]	500 to 5000 nM	> 1000 nM
CCCC(c1nc2ncc(Br)cc2c(=O)n1CC1CC1)N1CCCN(C)CC1 (stereo not drawn) [Example 183, 6-bromo-3-(cyclopropylmethyl)-2-(1-(4-methyl-1,4-diazepan-1-yl)butyl)pyrido[2,3-d]pyrimidin-4(3H)-one]	< 500 nM	> 1000 nM
CCCC(c1nc2cc(F)c(F)cc2c(=O)n1CC)N1CCCN(CC)CC1 (stereo not drawn) [Example 46, 3-ethyl-2-(1-(4-ethyl-1,4-diazepan-1-yl)butyl)-6,7-difluoroquinazolin-4(3H)-one]	< 500 nM	< 500 nM
CCCC(c1nc2c(Cl)cc(Br)cc2c(=O)n1CC)N1CCCN(C)CC1 (stereo not drawn) [Example 49, 6-bromo-8-chloro-3-ethyl-2-(1-(4-methyl-1,4-diazepan-1-yl)butyl)quinazolin-4(3H)-one]	> 5000 nM	500 to 1000 nM
CCC[C@@H](c1nc2ccc(OC)cc2c(=O)n1CC)N1CCCN(C)CC1 [Example 16, (S)-3-ethyl-6-methoxy-2-(1-(4-methyl-1,4-diazepan-1-yl)butyl)quinazolin-4(3H)-one]	> 5000 nM	> 1000 nM
CCC[C@H](c1nc2ccc(Cl)cc2c(=O)n1C)N1CCN[C@H](C)CC1 [Example 245, 6-chloro-3-methyl-2-((R)-1-((R)-5-methyl-1,4-diazepan-1-yl)butyl)quinazolin-4(3H)-one]	> 5000 nM	500 to 1000 nM

Now from value to compound:

Ki [1]	Ki [2]	Compound
500 to 5000 nM	> 1000 nM	CCC[C@@H](c1nc2cc(F)c(Br)cc2c(=O)n1CC)N1CCNC[C@H](C)C1 [Example 98]
< 500 nM	> 1000 nM	CCC[C@H](c1nc2ccc(F)cc2c(=O)n1CC)N1CCCN[C@@H](C)C1 [Example 145, 3-ethyl-6-fluoro-2-((R)-1-((S)-3-methyl-1,4-diazepan-1-yl)butyl)quinazolin-4(3H)-one]
< 500 nM	< 500 nM	CCCC(c1nc2cc(Br)c(F)cc2c(=O)n1CCC)N1CCCN(CC)CC1 (stereo not drawn) [Example 62, 7-bromo-2-(1-(4-ethyl-1,4-diazepan-1-yl)butyl)-6-fluoro-3-propylquinazolin-4(3H)-one]
< 500 nM	> 1000 nM	CCC[C@H](c1nc2ccc(F)cc2c(=O)n1CC)N1CCN[C@H](C)CC1 [Example 235, 3-ethyl-6-fluoro-2-((R)-1-((R)-5-methyl-1,4-diazepan-1-yl)butyl)quinazolin-4(3H)-one]
< 500 nM	500 to 1000 nM	CCCC(c1nc2ccc(Br)cc2c(=O)n1CC(C)C)N1CCCN(C)CC1 (stereo not drawn) [Example 54, 6-bromo-3-isobutyl-2-(1-(4-methyl-1,4-diazepan-1-yl)butyl)quinazolin-4(3H)-one]
< 500 nM	< 500 nM	CCCC(c1nc2ccc(F)cc2c(=O)n1CC(C)C)N1CCCN(C)CC1 (stereo not drawn) [Example 43, 6-fluoro-3-isobutyl-2-(1-(4-methyl-1,4-diazepan-1-yl)butyl)quinazolin-4(3H)-one]
> 5000 nM	500 to 1000 nM	CCC[C@@H](c1nc2ccc(Br)cc2c(=O)n1CC)N1CCCN(C)CC1 [Example 152, (S)-6-bromo-3-ethyl-2-(1-(4-methyl-1,4-diazepan-1-yl)butyl)quinazolin-4(3H)-one]
> 5000 nM	< 500 nM	CCCC(c1nc2c(C)cc(Br)cc2c(=O)n1CC)N1CCCN(CC)CC1 (stereo not drawn) [Example 60, 6-bromo-3-ethyl-2-(1-(4-ethyl-1,4-diazepan-1-yl)butyl)-8-methylquinazolin-4(3H)-one]
500 to 5000 nM	> 1000 nM	CCCC(c1nc2nc(C(F)(F)F)ccc2c(=O)n1CC)N1CCCN(C)CC1 (stereo not drawn) [Example 190, 3-ethyl-2-(1-(4-methyl-1,4-diazepan-1-yl)butyl)-7-(trifluoromethyl)pyrido[2,3-d]pyrimidin-4(3H)-one]
< 500 nM	500 to 1000 nM	CCC[C@H](c1nc2ccc(I)cc2c(=O)n1CC)N1CCCN(C)CC1 [Example 213, (R)-3-ethyl-6-iodo-2-(1-(4-methyl-1,4-diazepan-1-yl)butyl)quinazolin-4(3H)-one]
500 to 5000 nM	> 1000 nM	CCC[C@H](c1nc2ccc(Br)cc2c(=O)n1CC)N1CCN(C)C[C@H](COC)C1 [Example 105, 6-Bromo-3-ethyl-2-((R)-1-((S)-6-(methoxymethyl)-4-methyl-1,4-diazepan-1-yl)butyl)quin-4 (3H)-one]
